The target in one data set is T1, C-Raf (Homo sapiens, UniProt P04049, Y340E/Y341E).
T1 construct: His tag (implied by nickel chromatography) and/or StrepII tag; made in house; host or cells: Sf9 insect cells (baculovirus) for CRAF and h14-3-3 zeta; E. coli for MEK1
Nature of the data set: In Vitro Raf Activity Determination (Alpha Screen, phosphorylation of kinase dead MEK1). Type of data set: biochemical. From the text:
CRAF cDNA was subcloned as full length protein, with Y340E and Y341E activating mutations, into a baculovirus expression vector for Sf9 insect cell expression. h14-3-3 zeta cDNA was subcloned into a baculovirus expression vector for SF9 insect cell expression. Sf9 cells co-expressing both proteins were lysed and subjected to immobilized nickel chromatography and eluted with Imidazole. A second column (StrepII binding column) was used and eluted with desthiobiotin. Protein Tags were removed using Prescission enzyme and the protein was further purified using a flowthrough step to remove tags.
C-Raf TR refers to a truncated C-Raf protein, a Δ1-324 deletion mutant. C-Raf FL refers to the full-length C-Raf protein.
Full length MEK1 with an inactivating K97R ATP binding site mutation is utilized as a RAF substrate. The MEK1 cDNA was subcloned with an N-terminal (his)6 tag into a vector for E. Coli expression. The MEK1 substrate was purified from E. Coli lysate by nickel affinity chromatography followed by anion exchange. The final MEK1 preparation was biotinylated (Pierce EZ-Link Sulfo-NHS-LC-Biotin) and concentrated.
Assay Materials: Assay buffer is 50 mM Tris, pH 7.5, 15 mM MgCl2, 0.01% Bovine Serum Albumin (BSA) and 1 mM dithiothreitol (DTT); Stop buffer is 60 mM ethylenediaminetetraacetic acid (EDTA) and 0.01% Tween® 20; b-Raf (V600E), active; biotinylated Mek, kinase dead; Alpha Screen detection kit (available from PerkinElmer™ #6760617R); Anti phospho-MEK1/2 (available from Cell Signaling Technology, Inc. #9121); 384 well low volume assay plates (White Greiner® plates).
Assay conditions: b-Raf (V600E) approximately 4 pM; c-Raf approximately 4 nM; biotinylated Mek, kinase dead approximately 10 nM; ATP 10 μM for BRAF (V600E) and 1 μM for CRAF; Pre-incubation time with compounds 60 minutes at room temperature; Reaction time 1 or 3 hours at room temperature.
Assay protocol: Raf and biotinylated Mek (kinase dead) were combined at 2× final concentrations in assay buffer (50 mM Tris, pH 7.5, 15 mM MgCl2, 0.01% BSA and 1 mM DTT) and dispensed […] per well in assay plates (Greiner white 384 well assay plates #781207) containing […] of 40× of a Raf kinase inhibitor test compound diluted in 100% DMSO. The plate was incubated for 60 minutes at room temperature. The Raf kinase activity reaction was started by the addition of […] per well of 2×ATP diluted in assay buffer. After 3 hours (b-Raf(V600E)) or 1 hour (c-Raf). The reactions were stopped and the phosphorylated product was measured using a rabbit anti-p-MEK (Cell Signaling, #9121) antibody and the Alpha Screen IgG (ProteinA) detection Kit (PerkinElmer #6760617R), by the addition of […] to the well of a mixture of the antibody (1:2000 dilution) and detection beads (1:2000 dilution of both beads) in Stop/bead buffer (25 mM EDTA, 50 mM Tris, pH 7.5, 0.01% Tween20). The additions were carried out under dark conditions to protect the detection beads from light. A lid was placed on top of the plate and incubated for 1 hour at room temperature, after which the luminescence was read on a PerkinElmer Envision instrument. The concentration of each compound for 50% inhibition (IC50) was calculated by non-linear regression using XL Fit data analysis software.

A short description of data set [1]: high throughput solubility assay. Conditions: for solubility: buffer solution, thermodynamic from solid. Type of data set: physicochemical. As to the method: Solubility of the compounds of the invention was assessed in a high throughput solubility assay: compounds were received as 10 mM DMSO solutions. The DMSO stock solution was then transferred into a microtiter plate. The DMSO solvent was dried with a solvent evaporator (GeneVac). After the addition of buffer solution (pH 6.8, pH 4.0 or FaSSIF), the plate was sealed and shaken for 16-24 hours at room temperature. The plate was centrifuged for phase separation and the supernatant quantified by a RapidFire 365 High-throughput MS System (Agilant) coupled with a mass spectrometer (Sciex), using a calibration curve constructed with the same DMSO stock solution. Solubility results (μM) are obtained in triplicate.

The mark [2] stands for this setting: c-Raf approximately 4 nM, ATP 1 μM, pre-incubation 60 minutes, reaction 1 hour at room temperature, read-out: C-Raf.
[3] abbreviates: phosphate Example itself, buffer (pH 6.8, pH 4.0 or FaSSIF) not given, 16-24 hours at room temperature.

≈ marks a conversion by molar mass, not a printed value. Read-outs that look alike come from different tables or passages of the source. Bounds are passed on as bounds.

T1 sequence (P04049 whole entry Y340E/Y341E): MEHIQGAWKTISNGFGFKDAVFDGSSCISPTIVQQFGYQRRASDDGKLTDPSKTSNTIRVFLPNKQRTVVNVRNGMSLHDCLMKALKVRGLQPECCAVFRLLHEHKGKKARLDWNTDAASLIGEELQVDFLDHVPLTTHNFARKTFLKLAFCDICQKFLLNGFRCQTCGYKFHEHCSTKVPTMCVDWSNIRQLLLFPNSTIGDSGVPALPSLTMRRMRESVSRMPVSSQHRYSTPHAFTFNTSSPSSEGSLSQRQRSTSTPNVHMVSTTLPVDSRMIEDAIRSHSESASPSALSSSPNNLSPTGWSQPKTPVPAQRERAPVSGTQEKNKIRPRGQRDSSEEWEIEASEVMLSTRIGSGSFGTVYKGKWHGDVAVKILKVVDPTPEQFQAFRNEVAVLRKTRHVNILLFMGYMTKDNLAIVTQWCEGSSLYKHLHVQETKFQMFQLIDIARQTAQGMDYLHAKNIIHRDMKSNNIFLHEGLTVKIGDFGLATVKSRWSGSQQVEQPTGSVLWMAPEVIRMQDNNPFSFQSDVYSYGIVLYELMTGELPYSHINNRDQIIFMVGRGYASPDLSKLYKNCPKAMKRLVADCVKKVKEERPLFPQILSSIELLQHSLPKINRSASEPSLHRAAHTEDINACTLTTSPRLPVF
T1 sequence (P63104 whole entry partner): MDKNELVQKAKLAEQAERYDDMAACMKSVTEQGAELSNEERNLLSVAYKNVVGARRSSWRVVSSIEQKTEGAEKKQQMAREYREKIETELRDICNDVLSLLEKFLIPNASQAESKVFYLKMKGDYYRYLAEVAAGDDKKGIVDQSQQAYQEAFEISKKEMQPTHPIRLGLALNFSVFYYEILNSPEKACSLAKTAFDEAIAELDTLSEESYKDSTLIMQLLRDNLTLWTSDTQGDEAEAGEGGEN

In the case of `Cc1ccc(NC(=O)c2cccc(C(F)(F)F)c2)cc1-c1cnc(OCCOP(=O)(O)O)c(N2CCOCC2)c1` [Example 16, 2-((5-(2-methyl-5-(3-(trifluoromethyl)benzamido)phenyl)-3-morpholinopyridin-2-yl)oxy)ethyl dihydrogen phosphate], the IC50 on C-Raf (setting [2]) came out at 1000 pM. In data set [1] (setting [3]), the solubility was < 1000 µM.
As to `Cc1ccc(NC(=O)c2cc(C(F)(F)F)ccn2)cc1-c1cc(OCCOP(=O)(O)O)nc(N2CCOCC2)c1` [Example 17, 2-((4-(2-methyl-5-(4-(trifluoromethyl)picolin amido)phenyl)-6-morpholinopyridin-2-yl)oxy)ethyl dihydrogen phosphate], on C-Raf (setting [2]), the IC50 stood at 20 pM. In data set [1] (setting [3]), this compound showed a solubility of 253 µM.
As to `Cc1ccc(NC(=O)c2ccnc(C(C)(F)F)c2)cc1-c1cc(OCCOP(=O)(O)O)nc(N2CCOCC2)c1` [Example 10, 2-((4-(5-(2-(1,1-difluoroethyl)isonicotin amido)-2-methylphenyl)-6-morpholinopyridin-2-yl)oxy)ethyl dihydrogen phosphate], at C-Raf (setting [2]), the IC50 was 300 pM. The compound also showed a solubility in data set [1] (setting [3]) of 635 µM.
For `Cc1ccc(NC(=O)c2ccnc(C(F)(F)F)c2)cc1-c1cnc(OCCOP(=O)(O)O)c(N2CCOCC2)c1` [Example 13, 2-((5-(2-methyl-5-(2-(trifluoromethyl)isonicotinamido)phenyl)-3-morpholinopyridin-2-yl)oxy)ethyl dihydrogen phosphate], in that order: 30 pM and 792 µM.
For `Cc1ccc(NC(=O)c2cccc(C(F)(F)F)c2)cc1-c1cc(OCCOP(=O)(O)O)nc(N2CCOCC2)c1` [Example 7, 2-((4-(2-methyl-5-(3-(trifluoromethyl)benzamido)phenyl)-6-morpholinopyridin-2-yl)oxy)ethyl dihydrogen phosphate], in that order: 50 pM and 124 µM.
For `Cc1ccc(NC(=O)c2ccnc(C(C)(C)F)c2)cc1-c1cnc(OCCOP(=O)(O)O)c(N2CCOCC2)c1` [Example 15, 2-((5-(5-(2-(2-fluoropropan-2-yl)isonicotinamido)-2-methylphenyl)-3-morpholinopyridin-2-yl)oxy)ethyl dihydrogen phosphate], in that order: 400 pM and 936 µM.
Turning to `Cc1ccc(NC(=O)c2ccnc(C(C)(C)F)c2)cc1-c1cc(OCCOP(=O)(O)O)nc(N2CCOC[C@H]2C)c1` [Example 11, (R)-2-((4-(5-(2-(2-fluoropropan-2-yl)isonicotinamido)-2-methylphenyl)-6-(3-methylmorpholino)pyridin-2-yl)oxy)ethyl dihydrogen phosphate], on C-Raf (setting [2]), the IC50 worked out at 2000 pM. For the same compound, the solubility in data set [1] (setting [3]) was < 1000 µM.
Consider `Cc1ccc(NC(=O)c2ccnc(C(F)(F)F)c2)cc1-c1cc(OCCO)nc(N2CCOCC2)c1` [N-(3-(2-(2-hydroxyethoxy)-6-morpholinopyridin-4-yl)-4-methylphenyl)-2-(trifluoromethyl)isonicotinamide, reference compound], for which the concentration in solution in data set [1] (buffer not stated) (solubility) was 18 µM (≈ 9.04 µg/mL).
`Cc1ncc(NC(=O)c2cccc(C(F)(F)F)c2)cc1-c1cnc(OCCOP(=O)(O)O)c(N2CCOCC2)c1` [Example 18, 2-((2′-methyl-5-morpholino-5′-(3-(trifluoromethyl)benzamido)-[3,3′-bipyridin]-6-yl)oxy)ethyl dihydrogen phosphate]: at C-Raf (setting [2]), the IC50 is 20 pM.
As to `Cc1ccc(NC(=O)c2cccc(C(F)(F)F)c2)cc1-c1cc(OCCOP(=O)(O)O)nc(N2CCOC[C@H]2C)c1` [Example 2, (R)-2-((4-(2-methyl-5-(3-(trifluoromethyl)benzamido)phenyl)-6-(3-methylmorpholino)pyridin-2-yl)oxy)ethyl dihydrogen phosphate], the IC50 at C-Raf (setting [2]) was found to be 6000 pM. The solubility in data set [1] (setting [3]) was < 1000 µM.
Regarding `Cc1ccc(NC(=O)c2ccnc(C(C)(F)F)c2)cc1-c1cnc(OCCOP(=O)(O)O)c(N2CCOCC2)c1` [Example 14, 2-((5-(5-(2-(1,1-difluoroethyl)isonicotin amido)-2-methylphenyl)-3-morpholinopyridin-2-yl)oxy)ethyl dihydrogen phosphate], the IC50 at C-Raf (setting [2]) worked out at 40 pM. Besides, in data set [1] (setting [3]), the solubility came out at 897 µM.
For `Cc1ccc(NC(=O)c2ccnc(C(C)(C)F)c2)cc1-c1cc(OCCOP(=O)(O)O)nc(N2CCOCC2)c1` [Example 9, 2-((4-(5-(2-(2-fluoropropan-2-yl)isonicotinamido)-2-methylphenyl)-6-morpholinopyridin-2-yl)oxy)ethyl dihydrogen phosphate], in that order: 500 pM and 841 µM.
Turning to `Cc1ccc(NC(=O)c2cc(C(F)(F)F)ccn2)cc1-c1cc(OC[C@@H](O)COP(=O)(O)O)nc(N2CCOCC2)c1` [Example 3, (R)-2-hydroxy-3-((4-(2-methyl-5-(4-(trifluoromethyl)picolinamido)phenyl)-6-morpholinopyridin-2-yl)oxy)propyl dihydrogen phosphate], the IC50 on C-Raf (setting [2]) was determined as 24 pM. The solubility in data set [1] (setting [3]) was found to be 987 µM.
On to `Cc1ccc(NC(=O)c2ccnc(C(F)(F)F)c2)cc1-c1cc(OCCOP(=O)(O)O)nc(N2CCOC[C@H]2C)c1` [Example 12, (R)-2-((4-(2-methyl-5-(2-(trifluoromethyl)-isonicotinamido)phenyl)-6-(3-methyl-morpholino)pyridin-2-yl)oxy)ethyl dihydrogen phosphate], for which the IC50 at C-Raf (setting [2]) stood at 2000 pM. This compound registered a solubility in data set [1] (setting [3]) of 939 µM.
Turning to `Cc1ccc(NC(=O)c2ccnc(C(C)(F)F)c2)cc1-c1cc(OCCOP(=O)(O)O)nc(N2CCOC[C@H]2C)c1` [Example 6, (R)-2-((4-(5-(2-(1,1-difluoroethyl)isonicotin amido)-2-methylphenyl)-6-(3-methylmorpholino)pyridin-2-yl)oxy)ethyl dihydrogen phosphate], the IC50 at C-Raf (setting [2]) stood at 300 pM. The solubility in data set [1] (setting [3]) amounted to 675 µM.
For `Cc1ncc(NC(=O)c2cccc(C(F)(F)F)c2)cc1-c1cc(OCCOP(=O)(O)O)nc(N2CCOCC2)c1` [Example 5, 2-((2-methyl-6′-morpholino-5-(3-(trifluoromethyl)benz amido)-[3,4′-bipyridin]-2′-yl)oxy)ethyl dihydrogen phosphate], in that order: 100 pM and 725 µM.
Consider `Cc1ncc(NC(=O)c2cccc(C(F)(F)F)c2)cc1-c1cc(OCCOP(=O)(O)O)nc(N2CCOC[C@H]2C)c1` [Example 4, (R)-2-((2-methyl-6′-(3-methylmorpholino)-5-(3-(trifluoromethyl)-benzamido)-[3,4′-bipyridin]-2′-yl)oxy)-ethyl dihydrogen phosphate], for which, on C-Raf (setting [2]), the IC50 was determined as 700 pM. In data set [1] (setting [3]), this compound displayed a solubility of 617 µM.
In the case of `Cc1ccc(NC(=O)c2ccnc(C(F)(F)F)c2)cc1-c1cc(OCCOP(=O)(O)O)nc(N2CCOCC2)c1` [Example 1, 2-((4-(2-methyl-5-(2-(trifluoromethyl)isonicotinamido)phenyl)-6-morpholinopyridin-2-yl)oxy)ethyl dihydrogen phosphate], at C-Raf (read-out: inhibitory efficacy for C-Raf), the IC50 was 100 pM. Also, the “improvement of solubility compared with the corresponding non-phosphate molecule” value in data set [1] (874 μM versus 18 μM) was “greater than 48 fold”. In data set [1] (buffer not stated), this compound showed a solubility of 874 µM.
